From PMC3059997, “Exploring Indirect Sources of Human Exposure to Perfluoroalkyl Carboxylates (PFCAs): Evaluating Uptake, Elimination, and Biotransformation of Polyfluoroalkyl Phosphate Esters (PAPs) in the Rat” (Environmental Health Perspectives, 2010)

Columns and labels:
[1] = Elimination experiment: monoPAP mixture by IV injection, analytes in whole blood; format: in vivo, Sprague-Dawley rats; conditions: male, Sprague-Dawley, rat, in vivo, monoPAP IV dose
Experimental: (§1) This research was conducted under an animal use protocol approved by the University of Toronto Animal Care Committee. All animals were treated humanely and with regard for alleviation of suffering. Sprague-Dawley rats were obtained from Charles River Laboratories Inc. (Sherbrooke, QC, Canada) The animals were singly housed and exposed to a 12/12 hr light/dark cycle with food and water available ad libitum. Blood samples were collected from the saphenous vein using Microvette CB 300 vials (Sarstedt AG & Co., Montreal, QC, Canada) embedded with lithium-heparin as an anticoagulant. Whole-blood samples were stored at −20°C, and urine and feces samples were stored at 4°C.
(§2) Two groups of four 8-week-old male rats were administered a mixture of 4:2, 6:2, 8:2, and 10:2 diPAP or monoPAP, respectively, each at about 15 mg/kg, at 2 mL/kg by intravenous (IV) injection into the lateral tail vein. The dosing vehicle was 50:50 propylene glycol:water. Two control male rats were administered clean vehicle at 2 mL/kg [for details see Supplemental Material, Table 3 (doi:10.1289/ehp.1002409)].
(§3) Blood was collected from all animals 3 days before dosing to establish background contamination. For the uptake experiment, blood samples were collected at 1, 3, and 6 hr and 1, 2, 4, 7, 10, 14, 18, and 22 days after dosing. For the elimination experiment, blood samples were collected at 2, 4, and 6 hr and 1, 2, 4, 8, 11, 15, and 18 days after dosing. On the final sampling day, the animals were sacrificed by carbon dioxide asphyxiation, and about 10 mL of blood was collected by cardiac puncture into a BD Vacutainer embedded with lithium-heparin.
(§4) The compounds of interest fall into four categories: a) the diPAP and monoPAP parent compounds, b) the saturated and unsaturated fluorotelomer carboxylic acid (FTCA and FTUCA) metabolic intermediates, c) the FTOH-sulfate and FTOH-glucuronide phase II metabolites, and d) the final PFCA biotransformation products [see Supplemental Material, Table 1 (doi:10.1289/ehp.1002409)]. We analyzed these compounds in whole blood, urine, and feces samples. For full analytical details, see Supplemental Material. All PFCAs, FTCAs, FTUCAs, and phase II metabolites were quantified by internal calibration. Because internal standards were not available, monoPAPs and diPAPs were quantified by standard addition. We performed spike and recovery experments to validate the extraction and quantification techniques used (for details, see Supplemental Material).
(§5) Analyte and matrix specific limits of detection (LODs) and limits of quantification (LOQs) are provided in Supplemental Material (doi:10.1289/ehp.1002409). For the purpose of calculating means, values < LOD were assigned a value of zero, and values < LOQ but > LOD were used unaltered but are indicated by asterisks in figures and parentheses in tables. Values are presented using the arithmetic mean ± SE. Full data sets are available in Supplemental Material.

[2] = Elimination experiment: diPAP mixture by IV injection, analytes in whole blood; format: in vivo, Sprague-Dawley rats; conditions: male, Sprague-Dawley, rat, in vivo, diPAP IV dose, whole blood
Experimental: as §1, §2, §3, §4
as §5, with “Material. […]” for “Material.”

[3] = Uptake experiment: monoPAP mixture by oral gavage, analytes in whole blood; format: in vivo, Sprague-Dawley rats; conditions: male, Sprague-Dawley, rat, in vivo, po, monoPAP gavage dose
Experimental: as §1
(§6) Two groups of four 8-week-old male rats were administered a mixture of 4:2, 6:2, 8:2, and 10:2 diPAP or monoPAP, respectively, each at about 50 mg/kg, at 4 mL/kg by oral gavage without prior fasting. […] Two control male rats were administered clean vehicle at 4 mL/kg [for details, see Supplemental Material, Table 3 (doi:10.1289/ehp.1002409)].
as §3, §4, §5

[4] = parameters: method as in Olsen et al. 2007; conditions: ref Olsen et al. 2007; cited from earlier work
[5] = Uptake experiment: diPAP mixture by oral gavage, analytes in whole blood; format: in vivo, Sprague-Dawley rats; conditions: male, Sprague-Dawley, rat, in vivo, po, diPAP gavage dose, whole blood
Experimental: as §1, §6, §3, §4
as §5, with “Material. […]” for “Material.”

O=C(O)C(F)(F)C(F)(F)C(F)(F)C(F)(F)C(F)(F)C(F)(F)C(F)(F)F [PFOA, perfluorooctanoic acid]
Cmax ([1]; 15 mg/kg, whole blood, read-out: Cmax): 8.5 ± 1.4 ng/g | Tmax ([1]; 15 mg/kg, whole blood, read-out: Tmax (converted)): 96 h | Half-life ([1]; about 15 mg/kg each, PFCA product in whole blood, read-out: Half-life (converted)): 288 h | Cmax ([2]; 15 mg/kg, mean ± SE, values in parentheses < LOQ but > LOD, read-out: Cmax): 9.3 ± 2.4 ng/g | Tmax ([2]; 15 mg/kg, read-out: Tmax (converted)): 48 h | Half-life ([2]; about 15 mg/kg each, mean ± SE, read-out: Half-life (converted)): 552 h | Tmax ([3]; 50 mg/kg, whole blood, read-out: Tmax (converted)): 24 h | Cmax ([3]; 50 mg/kg, whole blood, values in parentheses < LOQ but > LOD, read-out: Cmax): 28 ± 8 ng/g | Half-life ([3]; about 50 mg/kg each, PFCA product in whole blood, read-out: Half-life (converted)): 240 h | Human serum half-life (arithmetic) [4]: 4.5 years | Cmax ([5]; 50 mg/kg, mean ± SE, values in parentheses < LOQ but > LOD, read-out: Cmax): 7.2 ± 1.7 ng/g | Tmax ([5]; 50 mg/kg, read-out: Tmax (converted)): 96 h | Half-life ([5]; about 50 mg/kg each, mean ± SE, read-out: Half-life (converted)): 264 h
